This assay concerns beta-TC6 cells. Kind of assay: Insulin HTRF assay (relative activity Ar) in beta-TC6 cells. It counts as cell-based, mouse. The following applies: insulin HTRF, supernatant of beta-TC6 cells, incubation with test compound at 37°C for 2, 3, 4h; for Emax: Mus musculus, Beta-TC6, 4 h, read-out: Ar (relative activity). The procedure, abridged:
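beta-TC6 cells (15k/well, seeded 24 or 48 h) washed, then exposed to compound in induction buffer (0.5% DMSO final) for 2, 3 or 4 h at 37°C.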
(In TR-FRET formats the signal depends on donor and acceptor labels being close together.)

For `COc1ccc(Nc2nccc3[nH]c(-c4cccc(OC)c4F)nc23)cc1O` [Compound 479, 5-[[2-(2-fluoro-3-methoxy-phenyl)-1H-imidazo[4,5-c]pyridin-4-yl]amino]-2-methoxy-phenol], the Emax was greater than 100%. Same read-out and setting: as for `Cn1c(NCc2ccccc2)nc2cnc(-c3ccc(N)nc3)cc21` [Compound 625, 6-(6-amino-3-pyridyl)-N-benzyl-1-methyl-imidazo[4,5-c]pyridin-2-amine], the figure is greater than 100%; as for `COc1ccc(OC)c(CCNc2nc3cnc(-c4ccncc4)cc3n2C)c1` [Compound 591, N-[2-(2,5-dimethoxyphenyl)ethyl]-1-methyl-6-(4-pyridyl)imidazo[4,5-c]pyridin-2-amine], 30 to 50%; as for `Cn1cc(-c2cc3cnc(Nc4ccncn4)cc3n2C)cn1` [Compound 147, 1-methyl-2-(1-methylpyrazol-4-yl)-N-pyrimidin-4-yl-pyrrolo[3,2-c]pyridin-6-amine], 50 to 100%.

With `COc1cc(-n2cnc3cnc(-c4cccc(C(N)=O)c4)cc32)cc(OC)c1OC` [Compound 732, 3-[1-(3,4,5-trimethoxyphenyl)imidazo[4,5-c]pyridin-6-yl]benzamide], the Emax lay in the range of 30 to 50%.

With `COc1ccc(Nc2cc3c(cn2)nc(-c2ccc(OC)c(OC)c2)n3C)cc1` [Compound 721, 2-(3,4-dimethoxyphenyl)-N-(4-methoxyphenyl)-1-methyl-imidazo[4,5-c]pyridin-6-amine], the Emax is 50 to 100%. Same read-out and setting: then `CN(C)c1cccc(Nc2cc3c(cn2)cc(-c2cccnc2)n3C)c1` [Compound 89, N1,N1-dimethyl-N3-[1-methyl-2-(3-pyridyl)pyrrolo[3,2-c]pyridin-6-yl]benzene-1,3-diamine], with 50 to 100%; and `COc1ccc(-c2nc3c(Nc4cccc(N(C)C)c4)nccc3[nH]2)cc1OC` [Compound 343, N1-[2-(3,4-dimethoxyphenyl)-1H-imidazo[4,5-c]pyridin-4-yl]-N3,N3-dimethyl-benzene-1,3-diamine], with 50 to 100%; and `COCCNc1nc2cnc(-c3cnn(C)c3)cc2n1C` [Compound 651, N-(2-methoxyethyl)-1-methyl-6-(1-methylpyrazol-4-yl)imidazo[4,5-c]pyridin-2-amine], with 50 to 100%. For the compound `NC(=O)c1ccc(Nc2nccc3[nH]c(-c4cccc(F)c4)nc23)cc1` [Compound 403, 4-[[2-(3-fluorophenyl)-1H-imidazo[4,5-c]pyridin-4-yl]amino]benzamide], the Emax lay within 30 to 50%. The same measure, in the same setting: as for `c1ccc(Cn2c(-c3cccnc3)cc3cnc(Nc4ccccn4)cc32)cc1` [Compound 98, 1-benzyl-N-(2-pyridyl)-2-(3-pyridyl)pyrrolo[3,2-c]pyridin-6-amine], the figure is 30 to 50%. Regarding `CC(=O)Nc1ccc(Nc2nccc3[nH]c(-c4cccc(F)c4)cc23)cc1` [Compound 198, N-[4-[[2-(3-fluorophenyl)-1H-pyrrolo[3,2-c]pyridin-4-yl]amino]phenyl]acetamide], the Emax was in the range of 50 to 100%. Still for that read-out and setting: then `CS(=O)(=O)c1ccc(Nc2nccc3[nH]c(-c4cccc(F)c4)cc23)cc1` [Compound 207, 2-(3-fluorophenyl)-N-(4-methylsulfonylphenyl)-1H-pyrrolo[3,2-c]pyridin-4-amine], with 50 to 100%; and `Cn1c(NCc2ccccc2)nc2cnc(-c3cccc(C(=O)O)c3)cc21` [Compound 748, 3-[2-(benzylamino)-1-methyl-imidazo[4,5-c]pyridin-6-yl]benzoic acid], with 0 to 30%; and `Cn1c(Nc2ccccc2)nc2cnc(Nc3ccc(S(C)(=O)=O)cc3)cc21` [Compound 639, 1-methyl-N6-(4-methylsulfonylphenyl)-N2-phenyl-imidazo[4,5-c]pyridine-2,6-diamine], with 50 to 100%.

As for `COc1ccccc1-c1cc2c(Nc3cccc(O)c3)nccc2[nH]1` [Compound 297, 3-[[2-(2-methoxyphenyl)-1H-pyrrolo[3,2-c]pyridin-4-yl]amino]phenol], the Emax is 30 to 50%. Consider `COc1ccc(Nc2nccc3[nH]c(-c4ccc(OC)cc4)nc23)cc1` [Compound 395, N,2-bis(4-methoxyphenyl)-1H-imidazo[4,5-c]pyridin-4-amine], for which the Emax is 50 to 100%. On the same count and under the same terms, then `CN(C)c1ccc(-c2cc3c(N4CCOCC4)nccc3[nH]2)cc1` [Compound 189, N,N-dimethyl-4-(4-morpholino-1H-pyrrolo[3,2-c]pyridin-2-yl)aniline], with greater than 100%; and `COc1cc(Nc2cc3[nH]c(-c4cncn4C)cc3cn2)cc(OC)c1OC` [Compound 100, 2-(3-methylimidazol-4-yl)-N-(3,4,5-trimethoxyphenyl)-1H-pyrrolo[3,2-c]pyridin-6-amine], with greater than 100%. `CNc1nc2cnc(-c3ccc(N(C)C)cc3)cc2n1-c1ccccc1` [Compound 501, 6-(4-dimethylaminophenyl)-N-methyl-1-phenyl-imidazo[4,5-c]pyridin-2-amine]: the “Ar (relative activity)” value is reported as “++++ (Ar ≥ 100 %)”. Regarding `CC(C)[C@H](CO)Nc1nccc2[nH]c(-c3ccncc3)nc12` [Compound 429, (2R)-3-methyl-2-[[2-(4-pyridyl)-1H-imidazo[4,5-c]pyridin-4-yl]amino]butan-1-ol], the Emax is 0 to 30%. In the case of `CNc1nc2cnc(Nc3ccc(O)cc3)cc2n1-c1cc(OC)c(OC)c(OC)c1` [Compound 485, 4-[[2-(methylamino)-1-(3,4,5-trimethoxyphenyl)imidazo[4,5-c]pyridin-6-yl]amino]phenol], the Emax lay within 50 to 100%.

Turning to `COc1cccc(-c2nc3c(Nc4ccccc4)nccc3[nH]2)c1` [Compound 370, 2-(3-methoxyphenyl)-N-phenyl-1H-imidazo[4,5-c]pyridin-4-amine], the Emax was 30 to 50%.

Consider `CN1CCN(c2ccc(Nc3cc4[nH]c(-c5ccccc5)cc4cn3)cc2)CC1` [Compound 177, N-[4-(4-methylpiperazin-1-yl)phenyl]-2-phenyl-1H-pyrrolo[3,2-c]pyridin-6-amine], for which the Emax was 50 to 100%.

Consider `CNc1nc2cnc(-c3ccc(O)c(OC)c3)cc2n1C` [Compound 612, 2-methoxy-4-[1-methyl-2-(methylamino)imidazo[4,5-c]pyridin-6-yl]phenol], for which the Emax lay within 50 to 100%. As for `CC(=O)Nc1cccc(Nc2cc3c(cn2)cc(-c2cccnc2)n3C)c1` [Compound 96, N-[3-[[1-methyl-2-(3-pyridyl)pyrrolo[3,2-c]pyridin-6-yl]amino]phenyl]acetamide], the Emax lay within 50 to 100%.

`CN(C)C(=O)c1ccc(-c2cc3c(Nc4ccc(Oc5ccccc5)cc4)nccc3n2C)cc1` [Compound 217, N,N-dimethyl-4-[1-methyl-4-(4-phenoxyanilino)pyrrolo[3,2-c]pyridin-2-yl]benzamide]: the Emax lay within 0 to 30%. The same measure, in the same setting: then `Fc1cccc(-c2cc3c(Nc4cccnc4)nccc3[nH]2)c1` [Compound 200, 2-(3-fluorophenyl)-N-(3-pyridyl)-1H-pyrrolo[3,2-c]pyridin-4-amine], with 30 to 50%; and `COc1ccc(CNc2nc3cnc(Nc4ccc(F)cc4)cc3n2C)cc1OC` [Compound 607, N2-[(3,4-dimethoxyphenyl)methyl]-N6-(4-fluorophenyl)-1-methyl-imidazo[4,5-c]pyridine-2,6-diamine], with 50 to 100%. Regarding `CNc1nc2cnc(-c3ccc(CO)cc3)cc2n1-c1ccccc1` [Compound 785, [4-[2-(methylamino)-1-phenyl-imidazo[4,5-c]pyridin-6-yl]phenyl]methanol], the “Ar (relative activity)” value is reported as “+ (0 % < Ar < 30 %)”.

The record behind these values is EP2818472A1, “Imidazo[4,5-c]pyridine and pyrrolo[3,2-c]pyridine compounds as G-protein-coupled receptor kinase 5 (GRK5) modulators” (Max-Planck-Gesellschaft zur Förderung der Wissenschaften …, priority 2013, dated 2014).
